From US20250154525A1, “PLANT VIRUS MOVEMENT PROTEINS AND METHODS OF USING SAME” (Molecular Transfer, Inc., priority 2016, published 2025)

Key:
HeLa Cells [1] = assay: GFP transfection with DOTMA/SEQ ID NO: 72 (fusogenic peptide)/peptide compared with Lipofectamine 2000; format: cell-based
Description: (§1) Cells were plated to so that on the day of transfection the cells were 70% confluent in 96 well tissue culture plates. A DOMTA/DOPE Lipid solution (1:1 molar ratio) at 2 mg/mL in water were mixed with an equal volume cell surface ligand containing adhesion peptide, the plant virus movement protein, or peptide derived therefrom, that had the nucleic acid binding moiety RRRRRRRRRRRR (SEQ ID NO:109) or KKKKKKKKKKKKKKKK (SEQ ID NO: 102) covalently linked to the N-terminus, or C-terminus of each peptide during peptide synthesis. Peptides were at 2 mg/mL in water. The DOTMA/DOPE and the solution containing the cell surface ligand containing adhesion peptide, the plant virus movement protein, or peptide derived therefrom, surface ligand peptide the was diluted 1 to 1 (v/v) in water. DOMTA/DOPE/PEPTIDE solutions were added to 0.1 mL of a plasmid DNA solution (EF1Alpha eGFP plasmid) at 10 μg/mL in OptiMEM.
(§2) All solutions were at room temperature. A volume of 0.2 mL of a 10 μg/mL solution of DNA was aliquoted into each well of a non-tissue cultured treated plate. 1-12 μL of transfection reagents were added to DNA solutions respectively. The transfection reagent and DNA solution was mixed by pipetting up and down twice. Transfection complexes were formed for 10 minutes. After 10 minutes, 0.01 or 0.02 mL of the transfection complex was added to cells. HuVEC, HeLa, human adult keratinocytes, human primary adult fibroblast, and A549 cells all respectively received 0.01 mL of the transfection complex. Human skeletal muscle cells, mouse C2C12 cells, and Jurkat, cells received 0.02 mL of the transfection complex. Cells were incubated for 42 hours at 37° C. at 5% CO2. Plates were read on a fluorescent plate reader. Cells were also examined visually under a microscope to assess the extent of transfection (in terms of the percent of cells transfected) with a fluorescent microscope. Other modes of analysis, for example quantification with B-galactocidase or luciferase reports plasmids can also be used.
The fusogenic peptide was added to the DOMTA/peptide formulation to achieve a final concentration of 0.1 mg/mL to see if transfection reagents were further enhanced by the addition of a fusogenic peptide and could provide higher transfection efficiency into HeLa cells and expression than the commercially available Lipofectamine 2000.

HeLa Cells [2] = assay: GFP plasmid transfection with DOTMA/DOPE plus surface ligand peptide, fluorescent plate reader (Example 1); format: cell-based; conditions: DOTMA/DOPE + peptide linked to R12 or K16; EF1Alpha eGFP plasmid; 42 hours
Description: as §1, §2
(§3) Surface ligand that caused increase expression of GFP over the lipid DOTMA with no surface ligand were considered to enhance transfection or had higher % cells transfected were considered to enhance transfection. Peptides that gave greater than 2-fold enhancement are noted in bold and could be further optimized by adding different transfection enhancers or could be used with different cationic lipids or polymers.
(§4) Tables 2-7, below, provide the results of the transfection enhancements with the various cell types, while Table 8 lists the peptides that were determined by visual inspection to enhance the transfection of the denoted cell lines over the lipid DOTMA.

NL-1 iPS Cells = assay: as above; format: cell-based; conditions: DOTMA/DOPE + peptide linked to R12 or K16; EF1Alpha eGFP plasmid; 42 hours
Description: as §1, §2, §3, §4

HuVec Cells = assay: as above; format: cell-based; conditions: DOTMA/DOPE + peptide linked to R12 or K16; EF1Alpha eGFP plasmid; 42 hours
Description: as §1, §2, §3, §4

Jurkat Cells = assay: as above; format: cell-based; conditions: DOTMA/DOPE + peptide linked to R12 or K16; EF1Alpha eGFP plasmid; 42 hours
Description: as §1, §2, §3, §4

Human Fibroblast Cells = assay: as above; format: cell-based; conditions: DOTMA/DOPE + peptide linked to R12 or K16; EF1Alpha eGFP plasmid; 42 hours
Description: as §1, §2, §3, §4

C2C12 Cells = assay: as above; format: cell-based, mouse; conditions: DOTMA/DOPE + peptide linked to R12 or K16; EF1Alpha eGFP plasmid; 42 hours
Description: as §1, §2, §3, §4

some examined cell types = assay: Summary of Example 1: transfection expression and % cells transfected over the no peptide control; format: cell-based; conditions: on some examined cell types
Description: as §1, §2, §3

[3] = 0.1 μL of DOTMA/SEQ ID NO: 72/Peptide in well of a 96 well plate
[4] = 0.2 μL of DOTMA/SEQ ID NO: 72/Peptide in well of a 96 well plate
[5] = 0.3 μL of DOTMA/SEQ ID NO: 72/Peptide in well of a 96 well plate
[6] = 0.4 μL of DOTMA/SEQ ID NO: 72/Peptide in well of a 96 well plate

Substance	Relative Fluorescence DOTMA/SEQ ID NO: 72/Peptide, HeLa Cells (RF) (HeLa Cells [1]; [3])	Relative Fluorescence DOTMA/SEQ ID NO: 72/Peptide, HeLa Cells (RF) (HeLa Cells [1]; [4])	Relative Fluorescence DOTMA/SEQ ID NO: 72/Peptide, HeLa Cells (RF) (HeLa Cells [1]; [5])	Relative Fluorescence DOTMA/SEQ ID NO: 72/Peptide, HeLa Cells (RF) (HeLa Cells [1]; [6])	Relative Fluorescence of Transfection of HeLa Cells (RF) (HeLa Cells [2])	Relative Fluorescence of Transfection of NL-1 iPS Cells (RF) (NL-1 iPS Cells)	Relative Fluorescence of Transfection of HuVec Cells (RF) (HuVec Cells)	Relative Fluorescence of Transfection of Jurkat Cells (RF) (Jurkat Cells)	Relative Fluorescence of Transfection of Human Fibroblast Cells (RF) (Human Fibroblast Cells)	Relative Fluorescence of Transfection of C2C12 Cells (RF) (C2C12 Cells)	transfection expression and % cells transfected over the no peptide control (some examined cell types)
218 (SPPRRARVT) [compound 218]	12686	13103	10151	10081	11179	17049	14827	21451	11230	3706	increased transfection expression and the % cells transfected
357 (SETTVKYIFRLHE) [compound 357]	7718	11798	9229	9107	22679	15624	6009	2256	7167	4506	increased transfection expression and the % cells transfected
323 (HQQDLGTAGSCLRKFSTMFLF) [compound 323]	15537	16620	10839	9244	14067	21694	12815	2900	4826	7698	increased transfection expression and the % cells transfected
348 (HQQDLGTAGSCLRKFSTM) [compound 348]	17413	18615	16164	15054	22289	21645	21214	15585	11802	8625	increased transfection expression and the % cells transfected
503 (TAGSCLRKFSTMRRRRRRRRRRRR) [compound 503]	12827	20006	17101	16206	25368	19014	12123	9411	13085	3973	increased transfection expression and the % cells transfected
230 (WQPPRARI) [compound 230]	–	–	–	–	8944	14524	9067	10229	11771	2606	increased transfection expression and the % cells transfected
229 (PPFLMLLKGSTR) [compound 229]	–	–	–	–	8816	13491	5452	8079	6811	1164	increased transfection expression and the % cells transfected
352 (RIQNLLKITNLRIKFVK) [compound 352]	–	–	–	–	32126	11628	3130	3150	3059	3324	increased transfection expression and the % cells transfected
361 (YIGSR) [compound 361]	–	–	–	–	3698	9363	6017	7006	7014	585	increased transfection expression and the % cells transfected
239 (KNSFMALYLSKGRLVFALG) [compound 239]	–	–	–	–	2717	4129	1404	2343	4084	10620	increased transfection expression and the % cells transfected
354 (SINNTAVMQRLT) [compound 354]	–	–	–	–	4403	24043	19284	16705	4998	1912	increased transfection expression and the % cells transfected
220 (ATETTITIS) [compound 220]	–	–	–	–	9398	15892	8737	6428	4516	1470	increased transfection expression and the % cells transfected
327 (VAEIDGIEL) [compound 327]	–	–	–	–	5345	31383	21018	14546	4662	2043	increased transfection expression and the % cells transfected
216 (YRVRVTPKEKTGPMKE) [compound 216]	–	–	–	–	6181	19626	14693	3570	3117	1001	increased transfection expression and the % cells transfected
